In patent US20040092547A1, “Alkyl-[4-(difluorophenyl)-oxazol-5-yl]-triazolo-pyridines” (Pfizer Inc, priority 2002, published 2004) one finds melting point data, which are given here for 1 compound.

Take `CC(C)c1nnc2ccc(-c3ocnc3-c3c(F)cccc3F)cn12` [Example 1, 6-[4-(2,6-Difluoro-phenyl)-oxazol-5-yl]-3-isopropyl-[1,2,4]triazolo[4,3-a]pyridine]: the melting point (usually the temperature of the solid-liquid transition) was in the range of 175.7 to 176.2 °C.
